From patent US20120157448A1, “COMPOUNDS FOR TREATING NEURODEGENERATIVE DISEASES” (priority 2010, published 2012)
Where two headings read alike, the source gives them in different places.

Molecular target: T1, BACE-1 (Homo sapiens, UniProt P56817)
T1 construct: endogenous in cells; host or cells: HEK-293 cells stably transfected with wild type APP695
Assay: Cellular BACE-1 inhibition assay (in vitro cellular Amyloidβ 1-40 production, HTRF immunoassay)
Assay type: cell-based
Protocol: Materials and Methods: HEK-293 cells stably transfected with a DNA construct containing the coding sequence for the wild type APP695 sequence were grown in Dulbecco's Modified Eagle Medium (“DMEM”) supplemented with 10% fetal bovine serum, penicillin/streptomycin and 150 μg/mL G418. Cells were plated in 96-well plates at 35,000 cells/well and allowed to attach for 8-12 hours. Media was changed to DMEM supplemented with 10% fetal bovine serum, penicillin/streptomycin 15 minutes prior to compound addition. Diluted compounds were then added at a final concentration of 0.5% DMSO. After 48 hours, 4 μL of media from each well was added to a corresponding well of a 384 well plate (Perkin Elmer Cat#6008280) containing the HTRF reagents. HTRF reagents were obtained from the CisBio Amyloid β 1-40 peptide assay kit (Cat#62B40PEC) and were prepared as follows anti-peptide β (1-40)-Cryptate and anti-peptide […] were stored in 2 plate aliquots at −80° C. Diluent and Reconstitution buffer were stored at 4° C. Aliquots of the two antibodies were diluted 1:100 with Reconstitution buffer, and this mixture was diluted 1:2 with Diluent. 12 μL of the reagent mixture was added to the required wells of the 384 well assay plate. The assay plate was incubated at 4° C. for 17 hours and then analyzed for fluorescence at 665 and 620 nm. The following compounds were tested in the above assay. Some compounds were tested more than once, and the average is reported below.

[1] = inhibition of Amyloidβ 1-40 production, HEK-293 cells stably transfected with wild type APP695, 48 hours incubation, average where tested more than once, read-out: IC50

T1 sequence (P56817 46-501): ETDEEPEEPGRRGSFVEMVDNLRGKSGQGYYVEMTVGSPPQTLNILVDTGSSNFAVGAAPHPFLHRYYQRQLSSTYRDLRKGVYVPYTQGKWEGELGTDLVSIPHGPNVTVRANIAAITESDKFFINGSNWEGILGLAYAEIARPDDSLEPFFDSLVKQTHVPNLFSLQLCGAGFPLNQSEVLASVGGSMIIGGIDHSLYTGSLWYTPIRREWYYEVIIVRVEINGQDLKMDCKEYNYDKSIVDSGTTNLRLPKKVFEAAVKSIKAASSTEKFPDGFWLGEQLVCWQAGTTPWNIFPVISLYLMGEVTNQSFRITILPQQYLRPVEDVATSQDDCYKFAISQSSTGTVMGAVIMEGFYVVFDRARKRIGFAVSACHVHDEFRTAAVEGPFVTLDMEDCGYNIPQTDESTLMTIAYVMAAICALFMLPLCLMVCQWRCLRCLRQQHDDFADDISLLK

Compound	IC50 [1] [nM]	IC50 [nM]
NC1=NC2(CO1)c1cc(-c3cncc(Cl)c3)ccc1O[C@H]1CCC(O)C[C@H]12 (stereo partly drawn) [Example 48, (4a′S,9a′S)-2-amino-7′-(5-chloropyridin-3-yl)-1′,2′,3′,4′,4a′,9a′-hexahydro-5H-spiro[oxazole-4,9′-xanthen]-2′-ol]	2550	–
NC1=N[C@@]2(CO1)c1cc(-c3cccnc3F)ccc1O[C@H]1CCN(C(=O)CC3CC3)C[C@@H]12 (relative stereo) [Example 218, 1-((4aS*,4′R*,10aR*)-2′-amino-8-(2-fluoropyridin-3-yl)-1,4,4a,10a-tetrahydro-5′H-spiro[chromeno[3,2-c]pyridine-10,4′-oxazol]-2(3H)-yl)-2-cyclopropylethanone]	457	–
NC1=NC2(CS1)c1cc(-c3cncnc3)ccc1O[C@H]1CC(O)CC[C@@H]12 (relative stereo) [Example 26, (4a′S*,9a′R*)-2-amino-7′-(pyrimidin-5-yl)-1′,2′,3′,4′,4a′,9a′-hexahydro-5H-spiro[thiazole-4,9′-xanthen]-3′-ol]	86.6	–
C[C@@]12CCOC[C@H]1C1(COC(N)=N1)c1cc(-c3cccnc3F)ccc1C2 (relative stereo) [Example 118, (4aR*,10aR*)-8-(2-fluoropyridin-3-yl)-4a-methyl-1,3,4,4a,5,10a-hexahydro-5′H-spiro[benzo[g]isochromene-10,4′-oxazol]-2′-amine]	–	219
N#Cc1cc(Cl)cc(-c2ccc3c(c2)[C@@]2(COC(N)=N2)[C@H]2C[C@@H](OC4CCC4)CC[C@@H]2O3)c1 [Example 156, 3-((2′S,4R,4a′S,9a′R)-2-amino-2′-cyclobutoxy-1′,2′,3′,4′,4a′,9a′-hexahydro-5H-spiro[oxazole-4,9′-xanthen]-7′-yl)-5-chlorobenzonitrile]	92.8	–

Continued by falling IC50 [1], values first:

IC50 [1] [nM]	Compound	IC50 [nM]
58.7	Cc1nc(C(=O)Nc2ccc3c(c2)C2(COC(N)=N2)[C@@H]2CCCCC2O3)co1 (single isomer, unassigned) [Example 15, N-(2-amino-1′,2′,3′,4′,4a′,9a′-hexahydro-5H-spiro[oxazole-4,9′-xanthene]-7′-yl)-2-methyloxazole-4-carboxamide]	–
58.5	NC1=NC2(CO1)c1cc(-c3cncc(Cl)c3)ccc1O[C@@H]1CCCC[C@H]12 (single isomer, unassigned) [Example 10, 7′-(5-chloropyridin-3-yl)-1′,2′,3′,4′,4a′,9a′-hexahydro-5H-spiro[oxazole-4,9′-xanthen]-2-amine]	–
48.3	N#Cc1cc(Cl)cc(-c2ccc3c(c2)[C@@]2(COC(N)=N2)[C@H]2C[C@@H](O)CC[C@@H]2O3)c1 [Example 140, 3-((2′S,4R,4a′S,9a′R)-2-amino-2′-hydroxy-1′,2′,3′,4′,4a′,9a′-hexahydro-5H-spiro[oxazole-4,9′-xanthen]-7′-yl)-5-chlorobenzonitrile]	–
33.5	COC1CCC2Oc3ccc(-c4cncc(Cl)c4)cc3C3(COC(N)=N3)C2C1 (stereo not drawn) [Example 54, 7′-(5-chloropyridin-3-yl)-2′-methoxy-1′,2′,3′,4′,4a′,9a′-hexahydro-5H-spiro[oxazole-4,9′-xanthen]-2-amine]	–
